# Active and inactive are the calls of the source.
# Experiments:
# [1] = molecular target: T1, High affinity choline transporter 1 (Homo sapiens, UniProt Q9GZV3); experiment: human choline transporter blockers, potency – cell-based, 5-point CRC, membrane potential dye, dose response (AID 504840); assay type: functional
# T1 sequence (Q9GZV3 whole entry): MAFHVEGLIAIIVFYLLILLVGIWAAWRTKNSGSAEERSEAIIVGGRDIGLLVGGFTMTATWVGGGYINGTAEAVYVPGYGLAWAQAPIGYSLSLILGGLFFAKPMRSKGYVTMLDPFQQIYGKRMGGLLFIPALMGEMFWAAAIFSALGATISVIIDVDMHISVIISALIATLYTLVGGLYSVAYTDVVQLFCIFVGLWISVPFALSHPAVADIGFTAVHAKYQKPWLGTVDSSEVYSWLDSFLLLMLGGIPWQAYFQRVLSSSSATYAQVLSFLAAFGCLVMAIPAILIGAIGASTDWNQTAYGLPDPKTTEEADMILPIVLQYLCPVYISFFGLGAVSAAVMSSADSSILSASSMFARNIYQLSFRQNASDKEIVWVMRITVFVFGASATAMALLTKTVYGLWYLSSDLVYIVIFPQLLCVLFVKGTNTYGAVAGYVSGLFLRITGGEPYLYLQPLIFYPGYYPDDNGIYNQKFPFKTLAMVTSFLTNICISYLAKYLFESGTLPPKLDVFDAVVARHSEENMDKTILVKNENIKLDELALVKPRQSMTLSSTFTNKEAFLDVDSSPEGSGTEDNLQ
# H9c2 = experiment: cells; assay type: functional, cell-based; settings: Rattus norvegicus, H9c2, Myocardium;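 further: confirmatory concentration-response retest of ultra-high-throughput screening hits for modulation of myocardial damage; cell death induced by hydrogen peroxide oxidative stress; compound pretreatment for 60 min then peroxide exposure for 2 h; potency is for protecting the cells against peroxide damage rather than for killing them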
# [2] = molecular target: T2, Ubiquitin-conjugating enzyme E2 N (Homo sapiens, UniProt P61088); assay type: functional;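 further: Dose-response confirmation in a TR-FRET assay detecting UBC13-driven polyubiquitin chain formation, inhibition measured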
# T2 sequence (P61088 whole entry): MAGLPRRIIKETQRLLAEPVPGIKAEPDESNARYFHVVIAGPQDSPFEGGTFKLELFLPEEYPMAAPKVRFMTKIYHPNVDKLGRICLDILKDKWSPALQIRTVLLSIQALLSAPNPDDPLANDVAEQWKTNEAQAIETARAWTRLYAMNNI
# [3] = molecular target: T3, Short transient receptor potential channel 4 (Mus musculus, UniProt Q9QUQ5); experiment: block of DAMGO-driven TRPC4 calcium entry – cell-based, HEK293 TRPC4/mu-opioid, Fluo-4 calcium, dose response (AID 434942); assay type: functional;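 further: potency of inhibitors blocking the TRPC4 calcium response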
# T3 sequence (Q9QUQ5 whole entry): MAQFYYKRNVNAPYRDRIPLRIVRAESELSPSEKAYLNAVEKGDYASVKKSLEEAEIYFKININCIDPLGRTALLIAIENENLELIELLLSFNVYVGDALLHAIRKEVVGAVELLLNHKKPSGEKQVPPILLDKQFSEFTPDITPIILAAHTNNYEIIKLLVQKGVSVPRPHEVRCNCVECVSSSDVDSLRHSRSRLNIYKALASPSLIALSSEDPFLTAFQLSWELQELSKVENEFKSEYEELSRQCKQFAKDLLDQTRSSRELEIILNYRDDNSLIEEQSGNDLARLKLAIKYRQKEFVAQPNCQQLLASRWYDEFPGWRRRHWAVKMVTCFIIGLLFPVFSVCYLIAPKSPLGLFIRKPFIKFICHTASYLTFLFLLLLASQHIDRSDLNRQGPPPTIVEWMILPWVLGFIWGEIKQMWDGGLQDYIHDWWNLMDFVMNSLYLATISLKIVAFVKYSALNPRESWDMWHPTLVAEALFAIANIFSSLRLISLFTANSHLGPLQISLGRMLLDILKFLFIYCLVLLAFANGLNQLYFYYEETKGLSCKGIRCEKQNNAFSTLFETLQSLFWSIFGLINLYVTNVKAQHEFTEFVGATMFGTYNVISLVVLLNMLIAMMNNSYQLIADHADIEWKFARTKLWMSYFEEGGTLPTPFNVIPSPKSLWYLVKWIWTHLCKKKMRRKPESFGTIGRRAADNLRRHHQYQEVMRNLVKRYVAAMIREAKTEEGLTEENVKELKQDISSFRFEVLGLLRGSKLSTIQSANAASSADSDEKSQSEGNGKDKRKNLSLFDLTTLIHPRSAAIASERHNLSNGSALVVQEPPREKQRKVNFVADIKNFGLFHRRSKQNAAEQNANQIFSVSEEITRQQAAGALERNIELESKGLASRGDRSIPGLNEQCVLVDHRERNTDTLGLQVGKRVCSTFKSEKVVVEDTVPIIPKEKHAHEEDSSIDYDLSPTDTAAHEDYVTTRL
# [4] = molecular target: T4, Carboxy-terminal domain RNA polymerase II polypeptide A small phosphatase 1 (Homo sapiens, UniProt Q9GZU7); experiment: CTDSP1 inhibitors, concentration-response, biochemical, absorbance readout, ultra-high-throughput screen actives (AID 540297); assay type: functional
# T4 sequence (Q9GZU7 whole entry): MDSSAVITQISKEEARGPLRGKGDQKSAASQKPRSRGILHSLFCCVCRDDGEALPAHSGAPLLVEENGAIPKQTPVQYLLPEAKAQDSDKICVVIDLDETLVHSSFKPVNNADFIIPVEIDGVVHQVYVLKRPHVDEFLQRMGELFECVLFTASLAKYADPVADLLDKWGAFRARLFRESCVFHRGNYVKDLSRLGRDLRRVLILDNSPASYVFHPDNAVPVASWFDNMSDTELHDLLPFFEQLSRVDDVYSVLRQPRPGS
# [5] = viability of PTEN-deleted HCT116 cells – cell-based, HCT116 PTEN knockout, dose response (AID 1047); assay type: functional;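 further: HCT116 colon tumor cells with PTEN knocked out; cells exposed to compound for 60 hours before readout; potency for loss of cell viability measured by luminescence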
# [6] = viability of HCT116 lacking mutant beta-catenin – cell-based, human colon tumor, dose response (AID 1045); assay type: functional;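 further: HCT116 colon tumor cells with beta catenin knocked out; cells exposed to compound for 60 hours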
# [7] = molecular target: Induced myeloid leukemia cell differentiation protein Mcl-1 (Homo sapiens, UniProt Q07820); assay type: functional
# Induced myeloid leukemia cell differentiation protein Mcl-1, sequence (Q07820 whole entry): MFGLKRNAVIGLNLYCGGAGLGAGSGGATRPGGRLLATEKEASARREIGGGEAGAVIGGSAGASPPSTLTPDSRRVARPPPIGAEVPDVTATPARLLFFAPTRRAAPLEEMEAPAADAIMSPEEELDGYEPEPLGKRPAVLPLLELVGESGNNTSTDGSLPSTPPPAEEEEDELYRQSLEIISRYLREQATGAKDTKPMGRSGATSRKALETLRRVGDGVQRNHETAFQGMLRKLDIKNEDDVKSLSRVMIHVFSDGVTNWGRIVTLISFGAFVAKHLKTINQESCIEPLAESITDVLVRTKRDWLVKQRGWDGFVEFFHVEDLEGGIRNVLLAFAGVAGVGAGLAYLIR
# [8] = molecular target: T5, DNA repair and recombination protein RAD54-like (Homo sapiens, UniProt Q92698); experiment: RAD54 Holliday junction migration blockers – biochemical, fluorescence, cherry-picked samples, dose series, confirmation (AID 651657); assay type: functional
# T5 sequence (Q92698 whole entry): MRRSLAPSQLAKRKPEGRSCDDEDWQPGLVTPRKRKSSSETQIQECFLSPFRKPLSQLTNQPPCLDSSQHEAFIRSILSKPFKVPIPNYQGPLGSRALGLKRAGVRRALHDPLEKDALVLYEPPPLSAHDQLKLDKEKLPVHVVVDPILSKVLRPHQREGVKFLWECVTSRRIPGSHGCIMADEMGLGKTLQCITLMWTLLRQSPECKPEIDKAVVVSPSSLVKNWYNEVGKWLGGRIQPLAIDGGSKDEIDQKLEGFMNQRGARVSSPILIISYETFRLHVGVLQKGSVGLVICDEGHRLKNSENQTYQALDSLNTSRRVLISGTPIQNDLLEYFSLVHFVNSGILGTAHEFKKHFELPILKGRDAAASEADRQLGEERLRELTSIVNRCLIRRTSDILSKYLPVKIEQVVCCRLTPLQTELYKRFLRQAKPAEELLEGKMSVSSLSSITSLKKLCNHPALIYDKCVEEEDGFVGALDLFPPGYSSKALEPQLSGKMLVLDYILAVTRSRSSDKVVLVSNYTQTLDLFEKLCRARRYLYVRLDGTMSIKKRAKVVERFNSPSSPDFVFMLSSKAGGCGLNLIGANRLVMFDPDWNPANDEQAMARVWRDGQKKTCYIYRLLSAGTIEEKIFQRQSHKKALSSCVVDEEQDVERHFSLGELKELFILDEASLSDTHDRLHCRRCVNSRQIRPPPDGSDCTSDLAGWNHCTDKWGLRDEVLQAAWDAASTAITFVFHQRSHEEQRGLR
# Vero = experiment: cells; assay type: functional; settings: Chlorocebus sabaeus
# [9] = blockers of HIV-1 envelope-mediated cell-cell fusion – cherry-pick, dose response (AID 652057); assay type: functional, cell-based
# [10] = blockers of HIV-1 ZM109 envelope-driven cell-cell fusion – HeLa effector, CEM target cells, luciferase, cherry-pick, dose response (AID 652058); assay type: functional, cell-based;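 further: luciferase signal from HIV-1 Env mediated cell-cell fusion of effector and target cells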
# [11] = off-target signal loss in HeLa-CEM21 co-culture – HeLa F-luc CTL cells, cherry-picked, counter-screen for HIV-1 Env fusion inhibitor project, dose response (AID 652040); assay type: functional, cell-based;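 further: potency for signal decrease marking cytotoxic or nonspecific inhibition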
# [12] = HIV-1 AD8 envelope cell-cell fusion blockers – cherry-pick, dose response (AID 652062); assay type: functional, cell-based;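 further: luciferase signal from cell-cell fusion driven by HIV-1 clade B AD8 Env; potency is for inhibitors of fusion seen as a drop in luminescence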
smiles,measurement,setting,value
COc1cc(NC(=O)c2csc(-c3ccncc3)n2)cc(C(=O)Nc2cccc(C(F)(F)F)c2)c1,IC50,[1],6.44 µM (active)
same,IC50,H9c2,> 79 µM (inactive)
O=C1c2cccc3cccc(c23)C(=O)N1CCN1CCN(CC(O)COc2ccccc2)CC1 (centres undefined),IC50,[2],> 20 µM (inactive)
COC(=O)c1cccc(NC(S)=Nc2cccc(Cl)c2Cl)c1,EC50,[3],8.41 µM (active)
CC(=O)N(c1ccc(Cl)cc1)c1c[nH]c2ccccc12,EC50,[3],18.8 µM (active)
Cc1ccc(O)c(C(=O)c2cnn(C(=O)COc3ccc(Cl)cc3)c2)c1,IC50,[4],3.89 µM (active)
CN(CCNC(=O)CCCOc1cc(=O)n(C)c2ccccc12)Cc1ccccc1,IC50,[2],> 20 µM (inactive)
O=C(COC(=O)c1ccccc1NCCO)Nc1cccc(S(=O)(=O)NC2=NCCCCC2)c1,IC50,[4],10.2 µM (active)
COc1cccc(C(=O)Nc2ccc3nc(N4CCN(c5ncccn5)CC4)cc(C)c3c2)c1OC,EC50,[5],5.74 µM (active)
same,EC50,[6],6.95 µM (active)
same,IC50,[7],5.6 µM (active)
CN1CCN(c2cc(N3CCNCC3)ccc2[N+](=O)[O-])CC1,AC50,[8],14.5 µM (active)
O=C(C[n+]1cc(Br)cc2ccccc21)c1ccc(Br)cc1,IC50,[1],11.4 µM (active)
CC(c1ccccc1)n1c(-c2cccs2)nc2c(c(=O)c3ccccc3n2C)c1=O (centres undefined),CC50,Vero,> 25 µM (active)
CCN(CC)CCCNc1nc(-c2ccccc2)nc2ccccc12,AC50,[8],13 µM (active)
Cc1cc(SCc2cc(=O)n3ccsc3n2)nc2ccccc12,IC50,[1],13.2 µM (active)
Clc1ccc(-c2csc3ncnc(NCCN4CCOCC4)c23)cc1,EC50,[3],3.35 µM (active)
same,AC50,[9],3.74 µM (active)
same,AC50,[10],2.24 µM (active)
same,AC50,[11],> 70 µM (inactive)
same,AC50,[12],18.1 µM (active)
O=C(O)c1[nH]c2ccc(Cl)cc2c1CC(=O)N1CCN(c2ccccc2)CC1,IC50,[1],13.2 µM (active)
COc1ccc(N(C(=O)c2snc(C(N)=O)c2N)C(C(=O)NC2CCCC2)c2ccc3ncccc3c2)cc1 (centres undefined),IC50,[2],> 20 µM (inactive)
COc1ccc(NC(=O)CSc2nc3ccsc3c(=O)n2CCCCCC(=O)O)cc1,IC50,[2],> 20 µM (inactive)

# — ChEMBL document CHEMBL1201862, “PubChem BioAssay data set” (2004)
